Data published in patent US7589169B2, “Compositions for treatment with glucagon-like peptide, and methods of making and using the same” (Pharmain Corporation, priority 2002, dated 2009).

Tested on: rat pancreatic ductal cell line ARIP
Assay: Trans-differentiation of ARIP ductal cells, RT-PCR of beta-cell specific genes
Format: cell-based
Conditions: ARIP cells cultured with GLP-1, RT-PCR
Protocol: Based on previous studies, insulin mRNA should be detectable after 48 h, GLUT-2 after 24 h and glucokinase mRNA at 72 h. […] RT-PCR for β-actin will be used as a control for cDNA loading.

glucagon-like peptide 1 [GLP-1]
time after which GLUT-2 mRNA should be detectable: 24 h
time after which insulin mRNA should be detectable: 48 h
time at which glucokinase mRNA should be detectable: 72 h
